Starred links: 1 amine or outer side, 2 acyl side, 3 side chain; linkers in the order of their positions; H or OH if unused. Non-standard residues stand in square brackets, D forms with d. Residues, ends and D or L forms follow the SMILES beside them. No end group written: not given here. X1 = CC(C)[C@@H](C(=O)[*:2])N(C[C@@H](N)Cc1ccccc1)[*:1]; β3hPhg = O=C(C[C@@H](N[*:1])c1ccccc1)[*:2]; Sar = CNCC(=O)O
Key:
[1] = Pharmacokinetic experiment on pulmonarily administered native motilin and motilin derivative compounds in rats (RIA); format: in vivo, rat; conditions: pulmonary administration; for Cmax / AUC / BA: 25 μg/rat; for AUC: trapezoidal method; for BA: relative to AUC of intravenous native motilin
Description: As test animals, 7- to 10-wk old male SD rats (purchased from CHARLES RIVER LABORATORIES JAPAN, INC.) that consisted of 3 rats per a group were subjected to the following experiment. Native motilin or motilin derivative compounds were dissolved in an aqueous solution of 0.1 N acetic acid to prepare a solution at a concentration of 1 mg/mL and 25 μL of the solution was administered into the polyethylene tube through the trachea by means of an intratracheal liquid spraying device (MicroSprayer; product of Penn Century). […] In the measurement, the respective derivatives were used as standard substances to construct calibration curves for determining the plasma levels.
Using these values, bioavailability (BA (%)) was calculated by the following equation: BA(%)=[(AUC/Dose)/(AUC(motilin—iv)/Dose(motilin—iv))]×100 • AUC: AUC (ng·min/mL) after pulmonary administration • Dose: dose (μg/kg) in pulmonary administration • AUC (motilin_iv): AUC (ng·min/mL) after intravenous administration of native motilin • Dose (motilin_iv): dose (μg/kg) in intravenous administration of native motilin.

[2] = system: conscious dog's gastrointestinal tract; experiment: Fasting IMC inducing activity in conscious dogs (force transducers); format: in vivo; conditions: fasting period, intravenous, 0.1 μg/kg
Excerpt: More specifically, dogs under anesthesia were subjected to a surgical operation in which force transducers were sutured to the serous membranes of the gastric antrum, duodenum, jejunum and ileum along the ring-shaped muscle and, thereafter, the strain from each transducer was sent to a recorder via an amplifier.

[3] = male, SD, plasma, inhaled or intranasal, 25 ug/animal

Molecule CC[C@H](C)[C@H](NC(=O)[C@@H]1CCCN1C(=O)[C@@H](NC[C@@H](N)Cc1ccccc1)C(C)C)C(=O)N[C@@H](Cc1ccccc1)C(=O)N[C@H](C(=O)N[C@@H](Cc1ccc(O)cc1)C(=O)NCC(=O)N[C@@H](CCC(=O)O)C(=O)N[C@@H](CC(C)C)C(=O)N[C@@H](CCC(N)=O)C(=O)N[C@@H](CCCNC(=N)N)C(=O)N[C@@H](CCSC)C(=O)N[C@@H](CCC(N)=O)C(=O)N[C@@H](CCC(=O)O)C(=O)N[C@@H](CCCCN)C(=O)N[C@@H](CCC(=O)O)C(=O)N[C@@H](CCCNC(=N)N)C(=O)N[C@@H](CC(N)=O)C(=O)N[C@@H](CCCCN)C(=O)NCC(=O)N[C@@H](CCC(N)=O)C(=O)O)[C@@H](C)O [Comparative compound 2, reference compound] (H-[X1]PIFTYGELQRMQEKERNKGQ-OH; N-terminus and C-terminus assumed) has a Cmax [1, 3] of 9.3 ± 3.09 ng/mL, an AUC [1, 3] of 1.98 ng·h/mL and a BA [1] of 4.1 ± 1.6%. The BA ([1]; listed as comparative compound 2) was 4.1%.

In the case of CC[C@H](C)[C@H](NC(=O)[C@@H]1CCCN1C(=O)[C@@H](NC(=O)[C@@H](N)Cc1ccccc1)C(C)C)C(=O)N[C@@H](Cc1ccccc1)C(=O)N[C@H](C(=O)N[C@@H](Cc1ccc(O)cc1)C(=O)NCC(=O)N[C@@H](CCC(=O)O)C(=O)N[C@@H](CC(C)C)C(=O)N[C@@H](CCC(N)=O)C(=O)N[C@@H](CCCNC(=N)N)C(=O)N[C@@H](CCSC)C(=O)N[C@@H](CCC(N)=O)C(=O)N[C@@H](CCC(=O)O)C(=O)N[C@@H](CCCCN)C(=O)N[C@@H](CCC(=O)O)C(=O)N[C@@H](CCCNC(=N)N)C(=O)N[C@@H](CC(N)=O)C(=O)N[C@@H](CCCCN)C(=O)N1CCC[C@H]1C(=O)N[C@@H](CCC(N)=O)C(=O)O)[C@@H](C)O [Compound 1], the Cmax [1, 3] is reported as 9.09 ± 0.53 ng/mL, the AUC [1, 3] is reported as 1.99 ng·h/mL and the BA [1] is reported as 5.3 ± 0.6%. The BA ([1]; listed as compound 1) was 5.3%.

With CC[C@H](C)[C@H](NC(=O)[C@@H]1CCCN1C(=O)[C@@H](NC(=O)C[C@@H](N)c1ccccc1)C(C)C)C(=O)N[C@@H](Cc1ccccc1)C(=O)N[C@H](C(=O)N[C@@H](Cc1ccc(O)cc1)C(=O)NCC(=O)N[C@@H](CCC(=O)O)C(=O)N[C@@H](CC(C)C)C(=O)N[C@@H](CCC(N)=O)C(=O)N[C@@H](CCCNC(=N)N)C(=O)N[C@@H](CC(C)C)C(=O)N[C@@H](CCC(N)=O)C(=O)N[C@@H](CCC(=O)O)C(=O)N[C@@H](CCCCN)C(=O)N[C@@H](CCC(=O)O)C(=O)N[C@@H](CCCNC(=N)N)C(=O)N1CCC[C@H]1C(=O)N[C@@H](CCCCN)C(=O)N1CCC[C@H]1C(=O)N[C@@H](CCC(N)=O)C(=O)O)[C@@H](C)O [Compound 4] (β3hPhg-VPIFTYGELQRLQEKERPKPQ-OH; N-terminus and C-terminus assumed) the Cmax [1, 3] was 14.6 ± 8.23 ng/mL, the AUC [1, 3] was 4.69 ng·h/mL and the BA [1] was 11.0 ± 7.2%.

For CC[C@H](C)[C@H](NC(=O)CN(C)C(=O)[C@@H](NC(=O)C[C@@H](N)c1ccccc1)C(C)C)C(=O)N[C@@H](Cc1ccccc1)C(=O)N[C@H](C(=O)N[C@@H](Cc1ccc(O)cc1)C(=O)NCC(=O)N[C@@H](CCC(=O)O)C(=O)N[C@@H](CC(C)C)C(=O)N[C@@H](CCC(N)=O)C(=O)N[C@@H](CCCNC(=N)N)C(=O)N[C@@H](CC(C)C)C(=O)N[C@@H](CCC(N)=O)C(=O)N[C@@H](CCC(=O)O)C(=O)N[C@@H](CCCCN)C(=O)N[C@@H](CCC(=O)O)C(=O)N[C@@H](CCCNC(=N)N)C(=O)N1CCC[C@H]1C(=O)N[C@@H](CCCCN)C(=O)N1CCC[C@H]1C(=O)N[C@@H](CCC(N)=O)C(=O)O)[C@@H](C)O [Compound 5, Phg(C#CH2) Val Sar Ile Phe Thr Tyr Gly Glu Leu Gln Arg Leu Gln Glu Lys Glu Arg Pro Lys Pro Gln] (β3hPhg-V[Sar]IFTYGELQRLQEKERPKPQ-OH; N-terminus and C-terminus assumed), the Cmax [1, 3] was 14.8 ± 7.78 ng/mL, the AUC [1, 3] was 2.92 ng·h/mL and the BA [1] was 5.7 ± 2.9%.

For CC[C@H](C)[C@H](NC(=O)[C@@H]1CCCN1C(=O)[C@@H](NC[C@@H](N)Cc1ccccc1)C(C)C)C(=O)N[C@@H](Cc1ccccc1)C(=O)N[C@H](C(=O)N[C@@H](Cc1ccc(O)cc1)C(=O)NCC(=O)N[C@@H](CCC(=O)O)C(=O)N[C@@H](CC(C)C)C(=O)N[C@@H](CCC(N)=O)C(=O)N[C@@H](CCCNC(=N)N)C(=O)N[C@@H](CCSC)C(=O)N[C@@H](CCC(N)=O)C(=O)N[C@@H](CCC(=O)O)C(=O)N[C@@H](CCCCN)C(=O)N[C@@H](CCC(=O)O)C(=O)N[C@@H](CCCNC(=N)N)C(=O)N[C@@H](CC(N)=O)C(=O)N[C@@H](CCCCN)C(=O)N1CCC[C@H]1C(=O)N[C@@H](CCC(N)=O)C(=O)O)[C@@H](C)O [Compound 6] (H-[X1]PIFTYGELQRMQEKERNKPQ-OH; N-terminus and C-terminus assumed), the Cmax [1, 3] was 34.2 ± 20 ng/mL, the AUC [1, 3] was 6.34 ng·h/mL and the BA [1] was 11.5 ± 6.1%. For the same molecule, the BA ([1]; listed as compound 6) was 11.5% and the “profile of plasma concentration compared with native motilin” value ([1]; FIG. 3) was “high peak levels”.

CC[C@H](C)[C@H](NC(=O)[C@@H]1CCCN1C(=O)[C@@H](NC[C@@H](N)Cc1ccccc1)C(C)C)C(=O)N[C@@H](Cc1ccccc1)C(=O)N[C@H](C(=O)N[C@@H](Cc1ccc(O)cc1)C(=O)NCC(=O)N[C@@H](CCC(=O)O)C(=O)N[C@@H](CC(C)C)C(=O)N[C@@H](CCC(N)=O)C(=O)N[C@@H](CCCNC(=N)N)C(=O)N[C@@H](CC(C)C)C(=O)N[C@@H](CCC(N)=O)C(=O)N[C@@H](CCC(=O)O)C(=O)N[C@@H](CCCCN)C(=O)N[C@@H](CCC(=O)O)C(=O)N[C@@H](CCCNC(=N)N)C(=O)N[C@@H](CC(N)=O)C(=O)N[C@@H](CCCCN)C(=O)N1CCC[C@H]1C(=O)N[C@@H](CCC(N)=O)C(=O)O)[C@@H](C)O [Compound 7] (H-[X1]PIFTYGELQRLQEKERNKPQ-OH; N-terminus and C-terminus assumed) gave a Cmax [1, 3] of 17.2 ± 7.18 ng/mL, an AUC [1, 3] of 3.24 ng·h/mL and a BA [1] of 6.4 ± 1.3%.

In the case of CC[C@H](C)[C@H](NC(=O)CN(C)C(=O)[C@@H](NC(=O)C[C@@H](N)c1ccccc1)C(C)C)C(=O)N[C@@H](Cc1ccccc1)C(=O)N[C@H](C(=O)N[C@@H](Cc1ccc(O)cc1)C(=O)NCC(=O)N[C@@H](CCC(=O)O)C(=O)N[C@@H](CC(C)C)C(=O)N[C@@H](CCC(N)=O)C(=O)N[C@@H](CCCNC(=N)N)C(=O)N[C@@H](CCSC)C(=O)N[C@@H](CCC(N)=O)C(=O)N[C@@H](CCC(=O)O)C(=O)N[C@@H](CCCCN)C(=O)N[C@@H](CCC(=O)O)C(=O)N[C@@H](CCCNC(=N)N)C(=O)N1CCC[C@H]1C(=O)N[C@@H](CCCCN)C(=O)N1CCC[C@H]1C(=O)N[C@@H](CCC(N)=O)C(=O)O)[C@@H](C)O [Compound 10, Phg(C#CH2) Val Sar Ile Phe Thr Tyr Gly Glu Leu Gln Arg Met Gln Glu Lys Glu Arg Pro Lys Pro Gln] (β3hPhg-V[Sar]IFTYGELQRMQEKERPKPQ-OH; N-terminus and C-terminus assumed), the “IMC Inducing activity” value [2] is reported as “Positive”, the Cmax ([1]; in vivo) is reported as 6.1 ± 1.5 ng/mL and the AUC ([1]; in vivo) is reported as 3.16 ng·h/mL. It also gave a BA [1] of 5.9 ± 0.8%.

Work on CC[C@H](C)[C@H](NC(=O)[C@@H]1CCCN1C(=O)[C@@H](NC[C@@H](N)Cc1ccccc1)C(C)C)C(=O)N[C@@H](Cc1ccccc1)C(=O)N[C@H](C(=O)N[C@@H](Cc1ccc(O)cc1)C(=O)NCC(=O)N[C@@H](CC(=O)O)C(=O)N[C@@H](CC(C)C)C(=O)N[C@@H](CCC(N)=O)C(=O)N[C@@H](CCCNC(=N)N)C(=O)N[C@@H](CC(C)C)C(=O)N[C@@H](CCC(N)=O)C(=O)N[C@@H](CCC(=O)O)C(=O)N[C@@H](CCCCN)C(=O)N[C@@H](CCC(=O)O)C(=O)N[C@@H](CCCNC(=N)N)C(=O)N1CCC[C@H]1C(=O)N[C@@H](CCCCN)C(=O)N1CCC[C@H]1C(=O)N[C@@H](CCC(N)=O)C(=O)O)[C@@H](C)O [Compound 12] (H-[X1]PIFTYGDLQRLQEKERPKPQ-OH; N-terminus and C-terminus assumed) yielded a Cmax [1, 3] of 30.1 ± 15.8 ng/mL, an AUC [1, 3] of 9.42 ng·h/mL and a BA [1] of 18.7 ± 10.7%.

In the case of CC[C@H](C)[C@H](NC(=O)[C@@H]1CCCN1C(=O)[C@@H](NC[C@@H](N)Cc1ccccc1)C(C)C)C(=O)N[C@@H](Cc1ccccc1)C(=O)N[C@H](C(=O)N[C@@H](Cc1ccc(O)cc1)C(=O)NCC(=O)N[C@@H](CC(=O)O)C(=O)N[C@@H](CC(C)C)C(=O)N[C@@H](CCC(N)=O)C(=O)N[C@@H](CCCNC(=N)N)C(=O)N[C@@H](CCSC)C(=O)N[C@@H](CCC(N)=O)C(=O)N[C@@H](CCC(=O)O)C(=O)N[C@@H](CCCCN)C(=O)N[C@@H](CCC(=O)O)C(=O)N[C@@H](CCCNC(=N)N)C(=O)N1CCC[C@H]1C(=O)N[C@@H](CCCCN)C(=O)N1CCC[C@H]1C(=O)N[C@@H](CCC(N)=O)C(=O)O)[C@@H](C)O [Compound 13] (H-[X1]PIFTYGDLQRMQEKERPKPQ-OH; N-terminus and C-terminus assumed), the Cmax [1, 3] is reported as 18.4 ± 10.4 ng/mL, the AUC [1, 3] is reported as 3.09 ng·h/mL and the BA [1] is reported as 5.6 ± 1.5%.

With FVPIFTYGDLQRLQEKERPKPQ [Compound 3] the Cmax [1, 3] was 24.6 ± 5.8 ng/mL, the AUC [1, 3] was 4.7 ng·h/mL and the BA [1] was 9.5 ± 0.9%.

“FVPIFTYGELQRLQEKERNKGQ [Comparative compound 1, reference compound]” gave a Cmax [1, 3] of 4.53 ± 2.86 ng/mL, an AUC [1, 3] of 1.05 ng·h/mL and a BA [1] of 2.8 ± 1.6%. The BA ([1]; listed as comparative compound 1) was 2.8%.

With FVPIFTYGELQRLQEKERPKPQ [Compound 9] the Cmax [1, 3] was 8.99 ± 5.99 ng/mL, the AUC [1, 3] was 1.93 ng·h/mL and the BA [1] was 5.7 ± 3.1%.

— patent US8710184B2, “Motilin-like peptide compound having transmucosal absorbability imparted thereto” (Daiichi Sankyo Company, Limited, priority 2009, dated 2014)
